# Data published in patent US5246830A, “Enzymatic process for the determination of β-lactam antibiotics” (Ucb Bioproducts, S.A., priority 1990, dated 1993).
# Experiments:
# [1] = target: T1, enzyme R39 (soluble D-alanyl-D-alanine carboxypeptidase produced by Actinomadura R39) (Actinomadura sp. R39, UniProt P39045); experiment: Enzymatic determination of penicillin G in 50 μl milk samples, visual coloration (Example 1); format: biochemical; details: 1.5 picomole enzyme R39, 4 min + 1 min at 47° C.
# T1 construct: added to milk or serum samples
# T1 sequence (P39045 50-515): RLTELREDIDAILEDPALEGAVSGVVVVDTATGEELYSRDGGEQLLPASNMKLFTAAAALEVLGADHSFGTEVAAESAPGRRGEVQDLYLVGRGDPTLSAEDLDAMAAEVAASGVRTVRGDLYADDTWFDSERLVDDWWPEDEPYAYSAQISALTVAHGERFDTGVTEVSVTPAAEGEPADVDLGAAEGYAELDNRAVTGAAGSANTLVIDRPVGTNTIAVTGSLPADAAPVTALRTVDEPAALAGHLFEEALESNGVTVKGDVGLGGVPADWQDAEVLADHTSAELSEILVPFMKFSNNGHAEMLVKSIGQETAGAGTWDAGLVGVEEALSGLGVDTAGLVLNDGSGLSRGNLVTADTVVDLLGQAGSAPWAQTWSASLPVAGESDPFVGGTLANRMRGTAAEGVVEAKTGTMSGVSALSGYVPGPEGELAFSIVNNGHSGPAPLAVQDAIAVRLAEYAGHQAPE
# Description: A series of 50 μl milk samples is prepared containing known concentrations of penicillin G, and two 50 μl milk samples free from penicillin G (blank and control).
# (§1) 1.5 picomole of enzyme R39, dissolved in 10 μl of 0.5M Hepes buffer (pH=8.0) containing 0.5M NaCl and 0.25M MgCl2, and 20 μl of an aqueous solution containing 50 mg/ml of D-alanine are added to each sample (control sample+samples containing penicillin G). In the blank sample, enzyme R39 dissolved in Hepes buffer is replaced by 10 μl of 0.5M Hepes buffer (pH=8.0), containing 0.5M NaCl and 0.25M MgCl2 (Hepes=4-hydroxyethyl-1-piperazineethanesulfonic acid). The mixture is incubated at 47° C. for 4 minutes.
# (§2) Next, 5 μl of an aqueous solution containing 5 mg/ml [(N-benzoyl-D-alanyl)thio]-acetic acid and 10 μl of a phosphate buffer solution (pH=8.0; KH2 PO4 +K2 HPO4) containing 2 mg/ml of 5,5'-dithiobis(2-nitrobenzoic) acid are added and the mixture is incubated at 47° C. for 1 minute.
# The colorations obtained in the various samples are then observed.
# [2] = target: T1, enzyme R39 (soluble D-alanyl-D-alanine carboxypeptidase produced by Actinomadura R39); experiment: Enzymatic determination of penicillin G in milk with 0.4 picomole enzyme R39 (Example 2); format: biochemical; details: for Coloration: 0.4 picomole enzyme R39, 10 min + 5 min
# Description: as §1, §2
# The process is exactly the same as in Example 1 except that:
# 0.4 picomole of enzyme R39 (instead of 1.5 picomole) is added to the samples;
# the first incubation lasts 10 minutes (instead of 4 minutes) and
# (§3) the second incubation lasts 5 minutes (instead of 1 minute).
# [3] = target: T1, enzyme R39 (soluble D-alanyl-D-alanine carboxypeptidase produced by Actinomadura R39); experiment: Enzymatic determination of penicillin G in milk with various D-amino acids or glycine as activators (Example 5); format: biochemical
# Description: The process is the same as in example 3, except that the aqueous solution containing 100 mg/ml of D-alanine (test I) is respectively replaced by an aqueous solution containing 100 mg/ml of D-phenylalanine (test II), of D-serine (test III), of D-histidine (test IV), of D-methionine (test V), of D-2-aminobutyric acid (test VI), or by an aqueous solution containing 200 mg/ml of glycine (test VII).
# [4] = target: T1, enzyme R39 (soluble D-alanyl-D-alanine carboxypeptidase produced by Actinomadura R39); experiment: Enzymatic determination of penicillin G in milk with [(N-phenylacetyl-D-alanyl)thio]-acetic acid as substrate (Example 4); format: biochemical; details: substrate [(N-phenylacetyl-D-alanyl)thio]-acetic acid
# Description: The process is the same as in example 3, except that, after the first incubation, 120 μl of an aqueous solution containing 5 mg/ml of [(N-phenylacetyl-D-alanyl)thio]-acetic acid are added.
# [5] = target: T1, enzyme R39 (soluble D-alanyl-D-alanine carboxypeptidase produced by Actinomadura R39); experiment: Enzymatic determination of penicillin G in 3 ml milk samples (Example 3); format: biochemical; details: for Coloration: 24 picomoles enzyme R39, 10 min + 5 min
# Description: The process is the same as in Example 1, except that:
# the samples contain 3 ml of milk (instead of 50 μl);
# 24 picomoles (instead of 1.5 picomole) of enzyme R39 dissolved in 150 μl of 0.5M Hepes buffer (pH=8.0) and 600 μl of an aqueous solution containing 100 mg/ml of D-alanine are added to each sample;
# the first incubation lasts 10 minutes (instead of 4 minutes);
# 120 μl (instead of 5 μl) of the aqueous solution of [(N-benzoyl-D-alanyl)thio]-acetic acid and 120 μl of a phosphate buffer solution (pH=8.0) containing 5 mg/ml of 5,5'-dithiobis(2-nitrobenzoic) acid are then added, and
# as §3
# [6] = target: T1, enzyme R39 (soluble D-alanyl-D-alanine carboxypeptidase produced by Actinomadura R39); experiment: Enzymatic determination of penicillin G in milk, substrate and reagent combined in a tablet (Example 8); format: biochemical; details: substrate + reagent as tablet
# Description: The process is the same as in example 3. However, after the first incubation for a period of 10 minutes, a tablet is added which contains, 600 μg of [(N-benzoyl-D-alanyl)thio]-acetic acid and 600 μg of 5,5'-dithiobis(2-nitrobenzoic) acid.
# This tablet has the following overall composition (in % by weight): […]
# enzyme R39 = enzyme R39 (Actinomadura sp. R39, UniProt P39045); experiment: Stability of the enzyme R39-antibiotic complex; format: binding; details: at 37° C.
# Chain of enzyme R39 (P39045 50-515): as above
# Description: the extraordinary stability of the said complex, because, once formed it only breaks down very slowly. By way of example, the half-life of the complex formed between enzyme R39 and penicillin G is about 70 hours at 37° C.; and […]
# [7] = penicillin G 0.004 I.U./ml in 50 μl milk
# [8] = penicillin G 0.008 I.U./ml in 50 μl milk
# [9] = penicillin G 0.003 I.U./ml in 3 ml milk
# [10] = penicillin G 0.006 I.U./ml in 3 ml milk
smiles,measurement,setting,value
"CC1(C)S[C@@H]2[C@H](NC(=O)Cc3ccccc3)C(=O)N2[C@H]1C(=O)O [penicillin G, benzyl penicillin (penicillin G)]",Coloration,[1]; [7],intense yellow
same,Coloration,[1]; [8],medium yellow
same,Coloration,[1]; penicillin G 0.012 I.U./ml in 50 μl milk,pale yellow
same,Coloration,[1]; penicillin G 0.016 I.U./ml in 50 μl milk,white
same,Coloration,[1]; penicillin G 0.020 I.U./ml in 50 μl milk,white
same,Coloration,[1]; penicillin G 0.025 I.U./ml in 50 μl milk,white
same,penicillin G concentration in milk detected by reference to a color chart,"[2]; color chart, 15 minutes",0.002 I.U./ml
same,Coloration,[2]; penicillin G 0.001 I.U./ml in 50 μl milk,intense yellow
same,Coloration,[2]; penicillin G 0.002 I.U./ml in 50 μl milk,medium yellow
same,Coloration,[2]; penicillin G 0.003 I.U./ml in 50 μl milk,pale yellow
same,Coloration,[2]; [7],white
same,Coloration,[2]; penicillin G 0.005 I.U./ml in 50 μl milk,white
same,Coloration,[2]; [8],white
same,Coloration,[2]; penicillin G 0.010 I.U./ml in 50 μl milk,white
same,Coloration,"[3]; penicillin G 0.003 I.U./ml in 3 ml milk, test I, activator D-alanine 100 mg/ml",pale yellow
same,Coloration,"[3]; penicillin G 0.003 I.U./ml in 3 ml milk, test II, activator D-phenylalanine 100 mg/ml",pale yellow
same,Coloration,"[3]; penicillin G 0.003 I.U./ml in 3 ml milk, test III, activator D-serine 100 mg/ml",pale yellow
same,Coloration,"[3]; penicillin G 0.003 I.U./ml in 3 ml milk, test IV, activator D-histidine 100 mg/ml",pale yallow
same,Coloration,"[3]; penicillin G 0.003 I.U./ml in 3 ml milk, test V, activator D-methionine 100 mg/ml",pale yellow
same,Coloration,"[3]; penicillin G 0.003 I.U./ml in 3 ml milk, test VI, activator D-2-aminobutyric acid 100 mg/ml",pale yellow
same,Coloration,"[3]; penicillin G 0.003 I.U./ml in 3 ml milk, test VII, activator glycine 200 mg/ml",pale yellow
same,Coloration,"[3]; penicillin G 0.006 I.U./ml in 3 ml milk, test I, activator D-alanine 100 mg/ml",white
same,Coloration,"[3]; penicillin G 0.006 I.U./ml in 3 ml milk, test II, activator D-phenylalanine 100 mg/ml",white
same,Coloration,"[3]; penicillin G 0.006 I.U./ml in 3 ml milk, test III, activator D-serine 100 mg/ml",white
same,Coloration,"[3]; penicillin G 0.006 I.U./ml in 3 ml milk, test IV, activator D-histidine 100 mg/ml",white
same,Coloration,"[3]; penicillin G 0.006 I.U./ml in 3 ml milk, test V, activator D-methionine 100 mg/ml",white
same,Coloration,"[3]; penicillin G 0.006 I.U./ml in 3 ml milk, test VI, activator D-2-aminobutyric acid 100 mg/ml",white
same,Coloration,"[3]; penicillin G 0.006 I.U./ml in 3 ml milk, test VII, activator glycine 200 mg/ml",white
same,Coloration,[4]; [9],pale yellow
same,Coloration,[4]; [10],white
same,penicillin G concentration in milk detected visually in large sample volumes,"[5]; 3 ml milk, in 15 minutes",0.004 I.U. per ml
same,Coloration,[5]; penicillin G 0.002 I.U./ml in 3 ml milk,medium yellow
same,Coloration,[5]; [9],pale yellow
same,Coloration,[5]; penicillin G 0.004 I.U./ml in 3 ml milk,white
same,Coloration,[5]; [10],white
same,Coloration,[6]; penicillin G 0.002 (in 1.U.ml) in 3 ml milk,medium yellow
same,Coloration,[6]; penicillin G 0.003 (in 1.U.ml) in 3 ml milk,pale yellow
same,Coloration,[6]; penicillin G 0.004 (in 1.U.ml) in 3 ml milk,white
same,Coloration,[6]; penicillin G 0.006 (in 1.U.ml) in 3 ml milk,white
same,half-life of the complex formed between enzyme R39 and the antibiotic,enzyme R39,about 70 hours
